The conditions of data set [1]: free drug; cited from earlier work.
The nature of another data set: Water solubility. It counts as physicochemical. The following applies: Rosi and its 2DG-D conjugate.
In the next data set the test system is CATH.a neurons. Kind of data set: MTT cytocompatibility, CATH.a. It counts as cell-based. The following applies: all tested concentrations, 24 h. As to the method: (§1) Cytocompatibility studies were carried out using MTT assay as described in our previous work. […] After this, all the treated cells were incubated with MTT for 3 h till the purple-colored formazan crystals appeared. For dissolving these crystals, cell culture grade DMSO was added to each of the wells and incubated for 15 min. Finally, the absorbance was recorded at 570 nm using Synergy H1 hybrid multi-mode microplate. The percentage cytocompatibility was calculated using equation 2. All the measurements were done in triplicates with proper controls.

Data set [2] relates to human umbilical vein endothelial cells (HUVECs). As to the kind of experiment: MTT cytocompatibility, HUVEC. The following applies: all tested concentrations, 24 h. It counts as cell-based. As to the method: as §1
In a further data set the test system is EOC 20 microglial cells. Kind of data set: MTT cytocompatibility, EOC 20. The data set is classed as cell-based. The following applies: all tested concentrations, 24 h. As to the method:
as §1

The test system of a further data set is TNF-α. Kind of data set: Quantitative TNF-α ELISA. The data set is classed as cell-based. The following applies: LPS:H2O2 induced CATH.a, control 1-fold. The protocol: For determining the effect of 2DG-D-Rosi conjugates on the neuro-inflammation under in vitro conditions, the expression levels of tumor necrosis factor-alpha (TNF-α) and interleukin-6 (IL-6) were analyzed using an enzyme-linked immunosorbent assay (ELISA). The protocol was adapted from previously published literature with slight modifications. Briefly, CATH.a neurons (5×10^4 cells/well) were seeded into 96-well plates and cultured overnight. […] Following the treatment, the consumed culture media was collected and centrifuged at 12,000×g for 10 minutes to remove cellular debris. A 50 μL aliquot of the supernatant was added to ELISA plates pre-coated with primary antibodies for TNF-α and IL-6, respectively, and incubated for approximately 2 h. The cytokine concentrations (pg/mL) were determined using standard calibration curves provided in the ELISA kit, adhering to the manufacturer's instructions. All experiments were performed in triplicates, with appropriate controls.
For orientation: In an ELISA, binding on a coated surface is turned into a signal by an enzyme label.

In a further data set the test system is IL-6. As to the kind of experiment: Quantitative IL-6 ELISA. The data set is classed as cell-based. The following applies: LPS:H2O2 induced CATH.a, control ~1-fold. As to the method: For determining the effect of 2DG-D-Rosi conjugates on the neuro-inflammation under in vitro conditions, the expression levels of tumor necrosis factor-alpha (TNF-α) and interleukin-6 (IL-6) were analyzed using an enzyme-linked immunosorbent assay (ELISA). The protocol was adapted from previously published literature with slight modifications. Briefly, CATH.a neurons (5×10^4 cells/well) were seeded into 96-well plates and cultured overnight. The cells were pre-treated with lipopolysaccharide (LPS; 1 μg/mL) and hydrogen peroxide (H2O2, 100 μM) and then incubated with 2DG-D-Rosi conjugates at varying concentrations (50, 100, and 250 μg/mL) for 24 hours at 37° C. in a CO2 incubator. Following the treatment, the consumed culture media was collected and centrifuged at 12,000×g for 10 minutes to remove cellular debris. A 50 μL aliquot of the supernatant was added to ELISA plates pre-coated with primary antibodies for TNF-α and IL-6, respectively, and incubated for approximately 2 h. The cytokine concentrations (pg/mL) were determined using standard calibration curves provided in the ELISA kit, adhering to the manufacturer's instructions. All experiments were performed in triplicates, with appropriate controls.

The subject of data set [3] is CATH.a cells. Kind of data set: JC-1 mitochondrial membrane potential (MMP) assay. It counts as cell-based. The following applies: for MFI of J-monomers (confocal): control ~141. As to the method:
The JC-1 Mitochondrial Membrane Potential (MMP) Assay was used to assess 2DG-D-Rosi effects on CATH.a cells under TBI-like conditions via flow cytometry and confocal microscopy. Cells were pre-treated with LPS (1 μg/mL) and H2O2 (100 μM), followed by 2DG-D-Rosi treatment for 24 hours at 37° C., 5% CO2. After incubation, cells were stained with 2 μM JC-1 dye for 20 minutes at 37° C. in the dark. For flow cytometry, cells were analyzed on an Attune NxT® Flow Cytometer, with JC-1 monomers (green, depolarized mitochondria) detected in BL-1 (530/30 nm) and J-aggregates (red, polarized mitochondria) in YL-1 (585/16 nm). For confocal microscopy, cells were seeded on poly-L-lysine-coated coverslips, stained with JC-1, counterstained with DAPI, and imaged using a Leica SP-5 Confocal Microscope (20× water immersion magnification). The experiment was conducted in triplicate (n=3), and data were analyzed using GraphPad Prism® with statistical significance determined by a two-tailed t-test.

Data set [4] relates to CATH.a cells. Kind of data set: Annexin V/propidium iodide assay. The data set is classed as cell-based. The following applies: 250 μg/mL. As to the method: Apoptosis/necrosis was assessed in CATH.a cells using the FITC ApoScreen® Annexin V Apoptosis Kit. Cells were pre-treated with LPS (1 μg/mL) and H2O2 (100 μM) for 6 hours to mimic TBI-like conditions, followed by 2DG-D-Rosi treatment for 24 hours at 37° C., 5% CO2. After incubation, cells were harvested, washed twice with cold PBS, and resuspended in 100 μL of 1× Annexin Binding Buffer. Staining was performed with 10 μL Annexin V-FITC and 10 μL Propidium Iodide (PI) for 15 minutes at 2-8° C. in the dark, followed by dilution with 380 μL 1× Annexin Binding Buffer. Samples were analyzed on an Attune NxT® Flow Cytometer using BL-1 (530/30 nm) for Annexin V-FITC and YL-1 (585/16 nm) for PI. Controls included unstained, Annexin V-only, and PI-only samples. Density plots were generated to classify viable, early apoptotic, necrotic, and late apoptotic/necrotic cells. The experiment was performed in triplicate (n=3), and data was analyzed using GraphPad Prism® with statistical significance determined by a two-tailed t-test.

Another data set deals with Caspase-3/7. Kind of data set: Caspase-3/7 activity assay. The following applies: for caspase activity (confocal, ImageJ): control 100%. It counts as cell-based. As to the method:
For flow cytometry, 1×10^5lls per sample were incubated with Pheno Vue® 505 caspase-3/7 stain in fresh medium for 30 minutes, washed with PBS, and analyzed on an Attune NxT® Flow Cytometer using BL-1 (530/30 nm) for caspase activation detection. For confocal microscopy, 2×10^5 cells per well were seeded on poly-L-lysine-coated coverslips, stained with caspase-3/7 reagent, fixed in 4% PFA, permeabilized with 0.1% Triton® X-100, and counterstained with DAPI. Coverslips were mounted with Vectashield Plus® antifade medium and imaged using a Leica SP-5 Confocal Microscope (20× water immersion lens). The experiment was conducted in triplicate (n=3), and statistical significance was determined using GraphPad Prism® with a two-tailed t-test.

In another data set the test system is PPARγ. Kind of data set: PPARγ expression by flow cytometry and immunofluorescence. It counts as cell-based. The following applies: for PPARγ expression (confocal, ImageJ): LPS:H2O2 group 1-fold. As to the method:
For flow cytometry, 1×10^5 cells per sample were fixed in 4% PFA, permeabilized with 0.2% Triton® X-100, blocked with 3% BSA, and incubated overnight at 4° C. with an anti-PPARγ antibody.
For immunofluorescence, 5×10^4 cells per well were grown on poly-L-lysine-coated coverslips, treated, washed, and blocked with 3% BSA, followed by overnight incubation with an anti-PPARγ antibody at 4° C. on a 3D shaker. […] Imaging was performed using a […] SP5 Confocal Microscope (20× water immersion lens). The experiment was conducted in triplicate (n=3), and statistical significance was determined using GraphPad Prism® with a two-tailed t-test.
On the technique in general: In flow cytometry, cells or beads pass a laser one at a time.

Molecules are shown by their SMILES.

As to `CCc1ccc(CCOc2ccc(CC3SC(=O)NC3=O)cc2)nc1` (stereo not drawn) [Pio, pioglitazone], the “water solubility of free Pio” value in data set [1] was 4.42 µg/mL.

For `CN(CCOc1ccc(CC2SC(=O)NC2=O)cc1)c1ccccn1` (stereo not drawn) [Rosi, rosiglitazone], the “solubility in water” value in the data set “Water solubility” is on record as “sparingly soluble”. In addition, the “cytotoxicity (MTT)” value (in the data set with CATH.a neurons; in data set [2]; with EOC 20 microglial cells) was “No toxic effects” in each case. Also, the TNF-α levels in the data set with TNF-α (100 μg/mL) was 0.91 fold; with TNF-α (250 μg/mL), 0.85 fold; with TNF-α (500 μg/mL), 0.77 fold. The IL-6 levels with IL-6 (50 μg/mL) was found to be 0.88 fold; in the data set on IL-6 (100 μg/mL), 0.86 fold; in the data set on IL-6 (250 μg/mL), 0.67 fold. Also, the “MFI of J-monomers (confocal)” value in the data set with CATH.a cells [3] (50 μg/mL) is recorded as about 89; in the data set with CATH.a cells [3] (100 μg/mL) it was 74; in the data set on CATH.a cells [3] (250 μg/mL), 72. Besides, the “MFI of J-aggregates (red fluorescence)” value in the data set with CATH.a cells [3] (250 μg/mL, LPS:H2O2 group ~2.7) was about 78.1. The “healthy mitochondria, flow cytometry” value with CATH.a cells [3] (LPS+H2O2 ~0.24%, 2DG-D and Rosi at 250) is given as about 21.54%. Moreover, the “depolarized mitochondria (J-Mon+/J-Agg-), flow cytometry” value with CATH.a cells [3] (LPS+H2O2 ~95.13%, 2DG-D and Rosi at 250) is on record as about 69.73%. In addition, the necrosis in the data set with CATH.a cells [4] (LPS:H2O2 treated CATH.a (~31.07%)) was about 1.67%. The compound further came in with an apoptosis with CATH.a cells [4] (LPS:H2O2 treated CATH.a) of about 54.6%. For the same compound, the “caspase activity (confocal, ImageJ)” value in the data set with Caspase-3/7 (50 μg/mL) is reported as about 75%; in the data set with Caspase-3/7 (100 μg/mL) it was about 63%; with Caspase-3/7 (250 μg/mL), about 68%. The “lowering of caspase activity” value with Caspase-3/7 (free Rosi vs LPS:H2O2, flow cytometry) is given as about 70%. For the same compound, the “PPARγ expression (confocal, ImageJ)” value in the data set on PPARγ (50 μg/mL) came to 1.82 fold; in the data set on PPARγ (100 μg/mL) it was 1.79 fold; with PPARγ (250 μg/mL), 1.9 fold. Further, in the data set on PPARγ (LPS+H2O2 ~206, untreated ~112), the “PPARγ expression MFI (flow cytometry)” value is recorded as about 556.

(Values after US20250352653A1, “NEURON TARGETED 2-DEOXYGLUCOSE DENDRIMER FOR IMAGING AND TREATMENT OF NEUROLOGICAL DISEASES” (Washington State University, priority 2024, published 2025).)
